The values below come from PMC7705865 (2020).

The structures appear in SMILES notation.

Test [1] has as its system 1af (DNA, aptamer) ACCTGGGGGAGTATTGCGGAGGAAGGT
Kind of test: elution from ATP-agarose column. To be noted: 300 mM Na+, 5 mM Mg2+; 20 mM MOPS pH 7.4; 3 mM GMP; no elution of aptamer from immobilised ATP.

The test system of test [2] is 1bf (DNA, aptamer, artificial imidazole 2'-deoxyribonucleoside (Im) replacing C at 3 and G at 25 (Im:Im mispair)) ACCTGGGGGAGTATTGCGGAGGAAGGT
Briefly: elution from ATP-agarose column. To be noted: 300 mM Na+, 5 mM Mg2+; 20 mM MOPS pH 7.4; 3 mM GMP; no elution of aptamer from immobilised ATP.

In test [3] the test system is 1cf (DNA, aptamer, artificial imidazole 2'-deoxyribonucleoside (Im) replacing T at 4 and A at 24 (Im:Im mispair)) ACCTGGGGGAGTATTGCGGAGGAAGGT
Kind of test: elution from ATP-agarose column. The following applies: 300 mM Na+, 5 mM Mg2+; 20 mM MOPS pH 7.4; 3 mM GMP; no elution of aptamer from immobilised ATP.

For test [4], the system named is 1df (DNA, aptamer, artificial imidazole 2'-deoxyribonucleoside (Im) replacing G at 11 and C at 17 (Im:Im mispair)) ACCTGGGGGAGTATTGCGGAGGAAGGT
Briefly: elution from ATP-agarose column. The following applies: 300 mM Na+, 5 mM Mg2+; 20 mM MOPS pH 7.4; 3 mM GMP; no elution of aptamer from immobilised ATP.

The test system of test [5] is 1af (DNA, aptamer) ACCTGGGGGAGTATTGCGGAGGAAGGT
Kind of test: fluorescence, structure-switching strand displacement. The following applies: 300 mM Na+, 5 mM Mg2+; 20 mM MOPS pH 7.4, 22 °C; 1 mM AMP; DABCYL strand 1q displaced.

Test [6] deals with 1bf (DNA, aptamer, artificial imidazole 2'-deoxyribonucleoside (Im) replacing C at 3 and G at 25 (Im:Im mispair)) ACCTGGGGGAGTATTGCGGAGGAAGGT
The description is as above. The following applies: 300 mM Na+, 5 mM Mg2+; 20 mM MOPS pH 7.4, 22 °C; 1 mM AMP; DABCYL strand 1q displaced.

The test system of test [7] is 1cf (DNA, aptamer, artificial imidazole 2'-deoxyribonucleoside (Im) replacing T at 4 and A at 24 (Im:Im mispair)) ACCTGGGGGAGTATTGCGGAGGAAGGT
The description is as above. The following applies: 300 mM Na+, 5 mM Mg2+; 20 mM MOPS pH 7.4, 22 °C; 1 mM AMP; DABCYL strand 1q displaced.

Test [8] concerns 1df (DNA, aptamer, artificial imidazole 2'-deoxyribonucleoside (Im) replacing G at 11 and C at 17 (Im:Im mispair)) ACCTGGGGGAGTATTGCGGAGGAAGGT
Described as above. To be noted: 300 mM Na+, 5 mM Mg2+; 20 mM MOPS pH 7.4, 22 °C; 1 mM AMP; DABCYL strand 1q displaced.

Test [9] concerns 1a (DNA, aptamer) ACCTGGGGGAGTATTGCGGAGGAAGGT
Kind of test: fluorescence, structure-switching strand displacement (system B). To be noted: 300 mM Na+, 5 mM Mg2+; 20 mM MOPS pH 8.1, 22 °C; 1 mM AMP; strands 2f (fluorescein) and 2q (DABCYL) displaced.

For `Nc1nc2c(ncn2[C@@H]2O[C@H](COP(=O)(O)O)[C@@H](O)[C@H]2O)c(=O)[nH]1`, the binding entry in test [1], in [2], in [3] and in test [4] was “no” throughout.

For `Nc1ncnc2c1ncn2[C@@H]1O[C@H](COP(=O)(O)O)[C@@H](O)[C@H]1O`, the binding result in test [5] is given as “yes”; in test [6], “yes”; in [7], “yes”; in [8] it was “weak”; in [9], “yes”.
